From article PMC8360279, “Combination of Polygoni Multiflori Radix Praeparata and Acori Tatarinowii Rhizoma Alleviates Learning and Memory Impairment in Scopolamine-Treated Mice by Regulating Synaptic-Related Proteins” (Frontiers in Pharmacology, 2021)
Counter-ions that a name gives are not always drawn.

How the values were obtained:
[1] = male, Sprague-Dawley, rat, in vivo, po, 4.32 g/kg
Experimental: (§1) Additionally, 18 rats were orally administered PA, PMRP, or ATR once, respectively (6 rats in each group). The doses were 4.32 g/kg for PA, 2.16 g/kg for PMRP or ATR. The whole blood samples were collected at different time points.
(§2) The components of PA were analyzed by HPLC-MS. The samples were separated on a ZORBAX StableBond C18 reversed-phase column (2.1 × 50 mm, 1.8 μm) (Agilent Technologies Co., CA, United States). The autosampler was set at 20 C, and gradient elution was performed with 0.1% formic acid as solvent A and acetonitrile as solvent B. The gradient program was as follows: 0–10 min, 88%–40% A; 10–12 min, 40%–1% A; and 12–15 min, 1% A. The flow rate was set at 0.3 ml min^−1, and the injection volume was 4 μL. The total run time was 15 min for each sample.
(§3) GC-MS analysis was conducted on a 7890A series gas chromatograph coupled to a Model 7,693 autosampler and Model 5975C Inert XL EI MSD with Triple-Axis Detector (Thermo Fisher Scientific). The carrier gas was 99.99% high-purity helium at a flow rate of 1.2 ml/min. Samples were separated on a TG-5MS column (60 × 0.25 mm and 0.25 μm film thickness). The sample volume was 1 μL with a split ratio of 5:1. The oven temperature program was initially set at 100°C for 1 min, then ramped at 10°C/min to 180°C and held for 1 min; ramped at 5°C/min to 210°C and held for 1 min; and ramped at 10°C/min to 260°C and held for 5 min. The total run time was 27 min. The injection port and detector temperatures were 280°C and 300°C, respectively. Electrospray ionization was performed at 70 eV. Selective ion monitoring was set for quantitation with a dwell time of 100 m/ion.
(§4) Male rats (n = 18) were fasted but had free access to water for 12 h prior to administration of PA, PMRP, and ATR (6 rats in each group). Blood samples were collected from the posterior orbital venous plexus of rats before dosing (time 0) and 5, 10, and 30 min and 1, 2, 4, 8, 16, and 24 h after dosing. The samples were immediately centrifuged at 4,500 rpm for 10 min and the separated plasma samples were stored at −80°C until analysis.

[2] = in vivo; conditions: male, Sprague-Dawley, rat, po; for Tmax: rat plasma, mean ± S.D., n = 6
Experimental: as §1, §2, §3, §4

[3] = Pharmacokinetics in rat plasma after oral administration of PA, PMRP or ATR (HPLC-MS and GC-MS); conditions: for Tmax: rat plasma, mean ± S.D., n = 6; for Plasma concentration after oral PA compared to the level after PMRP or ATR: rats, PA 4.32 g/kg vs PMRP or ATR 2.16 g/kg
Experimental: as §1, §2, §3, §4

[4] = system: ERK1/2/Nrf2/HO-1 pathway; parameters: method as in Lai et al. (2020); conditions: by modulating the ERK1/2/Nrf2/HO-1 pathway; ref Lai et al. (2020); cited from earlier work
[5] = Chen et al., cited from earlier work
[6] = system: neurotransmitter levels in the cerebral cortex of scopolamine-treated mice; assay: HPLC-MS analysis of neurotransmitter content in mouse cortical tissue; format: in vivo, Kunming mice; conditions: scopolamine injection 4 mg/kg i.p. vs control mice
[7] = system: P90RSK and PSD95 in the hippocampus; assay: Immunohistochemistry of P90RSK and PSD95 in the hippocampus; format: in vivo, Kunming mice; conditions: scopolamine vs control mice
Experimental: The brain was removed and immediately fixed in 4% paraformaldehyde in PBS. […] After quenching endogenous peroxidase and blocking with normal goat serum, the sections were incubated overnight at 4°C with antibodies against P90RSK and PSD95 (both at 1:5,000). The sections were washed with PBS and incubated with secondary antibodies for 2 h at 37°C, and then stained with 3,3′-diaminobenzidine in chromogen solution; they were then counterstained with hematoxylin, dehydrated in ethanol, cleared in xylene, and mounted with Cytoseal (Thermo Fisher Scientific). P90RSK and PSD95 immunoreactivity was measured using Image Pro Plus v6.0 software (Media Cybernetics, Rockville, MD, United States). Brown staining on the cell membrane or in the cytoplasm was represented positive staining, with the staining intensity reflecting the expression levels of P90RSK and PSD95 proteins.

[8] = system: scopolamine-treated mice; assay: Morris water maze test in scopolamine-treated mice; conditions: scopolamine 4 mg/kg i.p. (dementia model); starting from day 3; p < 0.001
Experimental: The mice were randomly divided into the following eight groups (n = 12 per group): 1) control (normal feeding); 2) model [scopolamine, 4 mg kg^−1⋅day^−1 by intraperitoneal injection (i.p.)]; 3) PAL [scopolamine, 4 mg kg^−1⋅day^−1 i. p. + PA, 1.56 g kg^−1⋅day^−1 by intragastric administration (i.g.)]; 4) PAH (scopolamine, 4 mg kg^−1⋅day^−1 i. p. + PA, 6.24 g kg^−1⋅day^−1 i. g.); 5) PL (scopolamine, 4 mg kg^−1⋅day^−1 i. p. + PMRP, 0.78 g kg^−1⋅day^−1 i. g.); 6) PH (scopolamine, 4 mg kg^−1⋅day^−1 i. p. + PMRP 3.12 g kg^−1⋅day^−1 i. g.); 7) AL (scopolamine, 4 mg kg^−1⋅day^−1 i. p.+ ATR, 0.78 g kg^−1⋅day^−1 i. g.); and 8) AH (scopolamine, 4 mg kg^−1⋅day^−1 i. p. + ATR, 3.12 g kg^−1⋅day^−1 i. g.). Mice in each group were orally administered PA, PMRP, or ATR every day for 30 days; after the last gavage, scopolamine was intraperitoneally injected and the Morris water maze experiment was conducted 40 min later for 6 days.
Spatial memory was assessed with the Morris water maze test as previously described [Lan et al. (2012)], with slight modifications. […] Each mouse was tested twice a day for 5 days and the latency to reach the platform was recorded. […] The time that the mouse spent in the target quadrant (ie, where the platform was previously hidden) and the number of times it crossed the platform were measured. […]

[9] = system: BDNF, TrkB, ERK, p-ERK, CREB, and p-CREB proteins in the hippocampus; assay: Western blot of BDNF/TrkB/ERK/CREB signaling axis components in the hippocampus; conditions: scopolamine treatment vs control mice
Experimental: The mice were randomly divided into the following eight groups (n = 12 per group): 1) control (normal feeding); 2) model [scopolamine, 4 mg kg^−1⋅day^−1 by intraperitoneal injection (i.p.)]; 3) PAL [scopolamine, 4 mg kg^−1⋅day^−1 i. p. + PA, 1.56 g kg^−1⋅day^−1 by intragastric administration (i.g.)]; 4) PAH (scopolamine, 4 mg kg^−1⋅day^−1 i. p. + PA, 6.24 g kg^−1⋅day^−1 i. g.); 5) PL (scopolamine, 4 mg kg^−1⋅day^−1 i. p. + PMRP, 0.78 g kg^−1⋅day^−1 i. g.); 6) PH (scopolamine, 4 mg kg^−1⋅day^−1 i. p. + PMRP 3.12 g kg^−1⋅day^−1 i. g.); 7) AL (scopolamine, 4 mg kg^−1⋅day^−1 i. p.+ ATR, 0.78 g kg^−1⋅day^−1 i. g.); and 8) AH (scopolamine, 4 mg kg^−1⋅day^−1 i. p. + ATR, 3.12 g kg^−1⋅day^−1 i. g.). […]
Three mice per group were deeply anesthetized with chloral hydrate (320 mg/kg i. p.) 60 min after the behavioral test and perfused through the ascending aorta with PBS. […] The hippocampus tissue was lysed in radioimmunoprecipitation assay buffer containing protease and phosphatase inhibitors; the protein concentration of the lysate was determined with the Bradford assay. […] After three washes with washing buffer and incubation with secondary antibody (1:3,000) for 2 h, protein bands were detected with SuperSignal West Pico Chemiluminescent Substrate (Solarbio, Beijing, China) and the signal intensity of target protein bands was normalized to that of the loading control (actin).

[10] = 2.16 g/kg, oral PMRP extract 2.16 g/kg once
[11] = 4.32 g/kg, oral PA extract 4.32 g/kg once
[12] = oral PMRP extract 2.16 g/kg once
[13] = male, Sprague-Dawley, rat, plasma, po, 2.16 g/kg
[14] = male, Sprague-Dawley, rat, plasma, po, 2.16 g/kg, Tmax, oral ATR extract 2.16 g/kg once
[15] = male, Sprague-Dawley, rat, plasma, po, 4.32 g/kg
[16] = male, Sprague-Dawley, rat, plasma, po, 4.32 g/kg, Tmax, oral PA extract 4.32 g/kg once
[17] = oral ATR extract 2.16 g/kg once

SMILES | AUC(0-inf) ([2]; 2.16 g/kg) | AUC(0-t) ([2]; 2.16 g/kg) | Cmax ([2]; 2.16 g/kg) | half-life ([2]; 2.16 g/kg) | AUC(0-inf) ([2]; 4.32 g/kg) | AUC(0-t) ([2]; 4.32 g/kg) | Cmax ([2]; 4.32 g/kg) | Tmax [2, 11] | Tmax ([3]; oral PA extract 4.32 g/kg once) | Plasma concentration after oral PA compared to the level after PMRP or ATR [3] | AUC(0-inf) [3, 13] | AUC(0-t) [3, 13] | Cmax [3, 13] | half-life [3, 13] | Tmax [3, 14] | AUC(0-inf) [3, 15] | AUC(0-t) [3, 15] | half-life [3, 15] | Tmax [3, 16] | Tmax [3, 17] | other results
O=C(O)c1cc(O)c(O)c(O)c1 [gallic acid] | 2700 ng·h/mL | 2460 ng·h/mL | 216 ± 47.9 ng/mL | 6.98 ± 2.15 h | 1530 ng·h/mL | 831 ± 497 ng·h/mL | 246 ± 244 ng/mL | 0.44 h | 0.444 ± 0.763 h | similar |  |  |  |  |  |  |  |  |  |  | T1/2 [1]: 19.532 ± 13.369 h; Tmax [2, 10]: 0.69 h; Tmax [3, 12]: 0.694 ± 0.356 h
Cc1cc(O)c2c(c1)C(=O)c1cc(O)cc(O)c1C2=O [emodin] | 7400 ng·h/mL | 847 ± 802 ng·h/mL | 370 ± 288 ng/mL | 3.7 ± 6.83 h | 4160 ng·h/mL | 1810 ± 934 ng·h/mL | 363 ± 122 ng/mL | 0.47 h | 0.472 ± 0.748 h |  |  |  |  |  |  |  |  |  |  |  | Effect on synaptic impairment [4]: protected against synaptic impairment; Tmax [2, 10]: 2.76 h; half-life ([2]; 4.32 g/kg): 14 ± 11.8 h; Tmax [3, 12]: 2.764 ± 4.056 h
C/C=C\c1cc(OC)c(OC)cc1OC [β-asarone] |  |  |  |  |  |  |  |  | 0.347 ± 0.351 h | similar | 1050 ng·h/mL | 603 ± 281 ng·h/mL | 49.8 ± 16 ng/mL | 10.7 ± 6.94 h | 4.78 h | 744 ± 620 ng·h/mL | 439 ± 209 ng·h/mL | 14 ± 14.8 h | 0.35 h | 4.778 ± 3.777 h | 
C/C=C/c1cc(OC)c(OC)cc1OC [α-asarone] |  |  |  |  |  |  |  |  | 0.875 ± 0.699 h | increased | 1040 ng·h/mL | 600 ± 360 ng·h/mL | 73.5 ± 25.9 ng/mL | 11.8 ± 12.6 h | 3.54 h | 1240 ng·h/mL | 1020 ng·h/mL | 8.26 ± 2.7 h | 0.88 h | 3.542 ± 3.736 h | Effect on learning and memory deficits ([5]; ref Limón et al., 2009, Shin et al., 2014, Li et al., 2019, 2020): improved learning and memory deficits; Cmax [3, 15]: 101 ± 30.3 ng/mL
COc1cc(OC)c(OC)cc1C=O [asarylaldehyde] | 1550 ng·h/mL | 1440 ng·h/mL | 119 ± 52.2 ng/mL | 7.18 ± 1.23 h | 1970 ± 766 ng·h/mL | 1710 ± 503 ng·h/mL | 200 ± 45 ng/mL | 0.43 h | 0.431 ± 0.442 h | increased |  |  |  |  |  |  |  |  |  | 2.208 ± 3.217 h | Tmax ([2]; 2.16 g/kg, oral ATR extract 2.16 g/kg once): 2.21 h; half-life ([2]; 4.32 g/kg): 7.38 ± 2.94 h
OCC1OC(Oc2c(O)cc(O)cc2C=Cc2ccc(O)cc2)C(O)C(O)C1O [THSG, 2,3,5,4′-Tetrahydroxystilbene-2-O-β-D-glucoside] |  |  |  |  |  |  |  |  |  | increased | 102 ± 49.7 ng·h/mL | 102 ± 49.4 ng·h/mL | 147 ± 105 ng/mL | 0.17 ± 0.136 h |  | 1630 ng·h/mL | 1520 ng·h/mL | 3.01 ± 3.36 h | 0.81 h |  | Effect on memory ([5]; by modulating ERK1/2 and CREB activation and increasing BDNF and PSD95 levels, ref Hou et al., 2011, Wang et al., Zhou et al., 2012, Shen et al., 2015, 2016): enhanced memory; Tmax ([3]; male, Sprague-Dawley, rat, plasma, po, 2.16 g/kg, Tmax, oral PMRP extract 2.16 g/kg once): 0.39 h; Cmax [3, 15]: 708 ± 281 ng/mL; Tmax ([3]; oral PA extract 4.32 g/kg once, listed as 2,3,5,4′-Tetrahydroxystilbene-2-O-β-glucoside): 0.806 ± 0.695 h; Tmax ([3]; oral PMRP extract 2.16 g/kg once, listed as 2,3,5,4′-Tetrahydroxystilbene-2-O-β-glucoside): 0.389 ± 0.356 h
CN1[C@@H]2C[C@@H](OC(=O)[C@H](CO)c3ccccc3)C[C@H]1[C@@H]1O[C@@H]12 [Scopolamine, Scopolamine Hydrobromide] |  |  |  |  |  |  |  |  |  |  |  |  |  |  |  |  |  |  |  |  | Concentrations of ACh, 5-HT, NE, Epi, Glu and GABA in the cortex [6]: reduced; Immunoreactivity of P90RSK and PSD95 in the hippocampus [7]: reduced; Time to find the platform vs controls [8]: significantly longer; Levels of BDNF, TrkB, ERK, p-ERK, CREB and p-CREB proteins in the hippocampus [9]: reduced
C/C=C/c1ccc(OC)c(OC)c1 [cis-methyl isoeugenol] |  |  |  |  |  |  |  |  | 1.583 ± 3.163 h | similar | 123 ± 30 ng·h/mL | 93.8 ± 20.4 ng·h/mL | 19.4 ± 18.8 ng/mL | 7.49 ± 2.55 h | 3.51 h | 129 ± 45.5 ng·h/mL | 118 ± 45.2 ng·h/mL | 8.1 ± 2.69 h | 1.58 h | 3.514 ± 3.753 h | Cmax [3, 15]: 24.1 ± 4.99 ng/mL
